pIC50: −log10 of the molar value.
Tests used:
rVSV-EBOV GP = assay: microbe, parasite or virus in culture; type: cell-based, Zaire Ebolavirus; settings: Zaire ebolavirus, read-out: rVSV-EBOV IC50
[1] = system: authentic EBOV (EBOV-Zaire 1995); assay: microbe, parasite or virus in culture; type: cell-based, Ebola virus; settings: Zaire ebolavirus, Vero, 48 h, read-out: infectious EBOV-Z IC50
in vitro = settings: African green monkey

| Structure (SMILES) | pIC50 (rVSV-EBOV GP) | pIC50 [1] | CC50 (in vitro) [µM] |
| --- | --- | --- | --- |
| O=[N+]([O-])c1ccc(N2CCNCC2)cc1NC(c1ccccc1)c1ccccc1 [MBX 3556, 1-(benzhydrylamino)-5-(piperazin-1-yl)-2-nitrobenzene] | 5.85 | 5.96 | 5.2 |
| CN1CCN(c2ccnc(NC(c3ccccc3)c3ccccc3)c2)CC1 [MBX 3586, 2-(benzhydrylamino)-4-(4-methylpiperazin-1-yl)pyridine] | 5.15 | 5.59 | 70 |
| CN1CCN(c2ccc([N+](=O)[O-])c(NC(c3ccccc3)c3ccccc3)c2)CC1 [PPZ-1, N-benzhydryl-5-(4-methylpiperazin-1-yl)-2-nitroaniline] | 5.92 | 5.64 | 61 |
| CN1CCN(c2ccc3ncn(C(c4ccccc4)c4ccccc4)c3c2)CC1 [MBX 3540, 1-benzhydryl-6-(4-methylpiperazin-1-yl)benzo[d]imidazole] | 6.10 | 6.05 | 58 |
| O=[N+]([O-])c1ccc(N2CCN(Cc3ccsc3)CC2)cc1NC(c1ccccc1)c1ccccc1 [MBX 3577, 1-(benzhydrylamino)-5-[4-(thiophen-3-ylmethyl)piperazin-1-yl]-2-nitrobenzene] | 5.19 | < 4.70 | > 200 |
| CC1CN(c2ccc3ncn(C(c4ccccc4)c4ccccc4)c3c2)CCN1C (stereo not drawn) [MBX 4212, 1-benzhydryl-6-(3,4-dimethylpiperazin-1-yl)-1H-benzo[d]imidazole] | 5.80 | 6.28 | 170 |
| CN(C)CCN(C)c1ccc([N+](=O)[O-])c(NC(c2ccccc2)c2ccccc2)c1 [MBX 3729, 2-(benzhydrylamino)-4-{[2-(dimethylamino)ethyl](methyl)amino}-1-nitrobenzene] | > 7.00 | 5.89 | 10 |
| CN1CCN(c2ccc(NS(C)(=O)=O)c(NC(c3ccccc3)c3ccccc3)c2)CC1 [MBX 3536A, 2-(benzhydrylamino)-4-(4-methylpiperazin-1-yl)-1-(methylsulfonamido)benzene] | 5.54 | 5.51 | 26 |
| O=[N+]([O-])c1ccc(N2CCN(Cc3ccccn3)CC2)cc1NC(c1ccccc1)c1ccccc1 [MBX 3558, 1-(benzhydrylamino)-5-[4-(pyridin-2-ylmethyl)piperazin-1-yl]-2-nitrobenzene] | 5.40 | 5.55 | > 200 |
| CC(C)(C)N1CCN(c2ccc([N+](=O)[O-])c(NC(c3ccccc3)c3ccccc3)c2)CC1 [MBX 3625, 2-benzhydrylamino-4-(4-tert-butylpiperazin-1-yl)nitrobenzene] | 6.07 | 6.11 | > 100 |
| CN(C)CCNc1ccc2ncn(C(c3ccccc3)c3ccccc3)c2c1 [MBX 4251, N^1-(1-benzhydryl-1H-benzo[d]imidazol-6-yl)-N^2,N^2-dimethylethane-1,2-diamine] | 5.70 | 5.58 | 105 |
| CN(C)CCCNc1ccc([N+](=O)[O-])c(NC(c2ccccc2)c2ccccc2)c1 [MBX 4335] | 6.10 | 6.32 | 11 |
| CN1CCN(c2ccc([N+](=O)[O-])c(NC(c3ccccc3)c3cccc(Cl)c3)c2)CC1 (stereo not drawn) [MBX 3643, 2-[(3-chlorophenyl)(phenyl)methylamino]-4-(4-methylpiperazin-1-yl)nitrobenzene] | 6.07 | < 4.70 | 21 |
| CC(C)N(CCNc1ccc2ncn(C(c3ccccc3)c3ccccc3)c2c1)C(C)C [MBX 4253, N1-(1-benzhydryl-1H-benzo[d]imidazol-6-yl)-N2,N2-diisopropylethane-1,2-diamine 2,2,2-trifluoroacetate] | 5.89 | 5.73 | 95 |
| CCCCN1CCN(c2ccc([N+](=O)[O-])c(NC(c3ccccc3)c3ccccc3)c2)CC1 [MBX 3559, 1-(benzhydrylamino)-5-(4-butylpiperazin-1-yl)-2-nitrobenzene] | 5.44 | 5.77 | > 200 |
| O=[N+]([O-])c1ccc(N2CCN(Cc3ccccc3)CC2)cc1NC(c1ccccc1)c1ccccc1 [MBX 3569, 1-(benzhydrylamino)-5-(4-benzylpiperazin-1-yl)-2-nitrobenzene] | < 4.60 | < 4.70 | > 200 |
| COCCN1CCN(c2ccc([N+](=O)[O-])c(NC(c3ccccc3)c3ccccc3)c2)CC1 [MBX 3591, 1-(benzhydrylamino)-5-[4-(2-methoxyethyl)piperazin-1-yl]-2-nitrobenzene] | 5.80 | 5.85 | > 100 |
| Cc1nc2ccc(N3CCN(C)CC3)cc2n1C(c1ccccc1)c1ccccc1 [MBX 3539, 1-benzhydryl-2-methyl-6-(4-methylpiperazin-1-yl)benzo[d]imidazole] | 4.85 | < 4.70 | 77 |
| c1ccc(C(c2ccccc2)n2cnc3ccc(N4CCN5CCCC5C4)cc32)cc1 (stereo not drawn) [MBX 4210, 1-benzhydryl-6-(hexahydropyrrolo[1,2-a]pyrazin-2(1H)-yl)-1H-benzo[d]imidazole] | 5.80 | 5.74 | > 200 |
| O=[N+]([O-])c1ccc(N2CCN(Cc3ccncc3)CC2)cc1NC(c1ccccc1)c1ccccc1 [MBX 3562, 1-(benzhydrylamino)-5-[4-(pyridin-4-ylmethyl)piperazin-1-yl]-2-nitrobenzene] | 5.25 | 5.51 | > 200 |
| O=[N+]([O-])c1ccc(N2CCN(Cc3cccs3)CC2)cc1NC(c1ccccc1)c1ccccc1 [MBX 3576, 1-(benzhydrylamino)-5-[4-(thiophen-2-ylmethyl)piperazin-1-yl]-2-nitrobenzene] | 5.24 | < 4.70 | > 200 |
| O=[N+]([O-])c1ccc(N2CCN(CCCO)CC2)cc1NC(c1ccccc1)c1ccccc1 [MBX 3610, 2-(benzhydrylamino)-4-[4-(3-hydroxypropyl)piperazin-1-yl]nitrobenzene] | 6.22 | 6.22 | 17 |
| O=[N+]([O-])c1ccc(N2CCN(Cc3cccnc3)CC2)cc1NC(c1ccccc1)c1ccccc1 [MBX 3568, 1-(benzhydrylamino)-5-[4-(pyridin-3-ylmethyl)piperazin-1-yl]-2-nitrobenzene] | 5.35 | 5.35 | > 200 |
| O=[N+]([O-])c1ccc(N2CCN(Cc3ccco3)CC2)cc1NC(c1ccccc1)c1ccccc1 [MBX 3575, 1-(benzhydrylamino)-5-[4-(furan-2-ylmethyl)piperazin-1-yl]-2-nitrobenzene] | 5.77 | < 4.70 | > 200 |
| CC(C)N1CCN(c2ccc([N+](=O)[O-])c(NC(c3ccccc3)c3ccccc3)c2)CC1 [MBX 3561, 1-(benzhydrylamino)-5-(4-isopropylpiperazin-1-yl)-2-nitrobenzene] | 5.82 | 5.77 | 63 |
| Cc1ccccc1C(Nc1cc(N2CCN(C)CC2)ccc1[N+](=O)[O-])c1ccccc1 (stereo not drawn) [MBX 3633, 2-[phenyl(o-tolyl)methylamino]-4-(4-methylpiperazin-1-yl)nitrobenzene] | 5.82 | 5.89 | 15 |

From US11459308B2 (priority 2016, dated 2022)
